Read-outs that look alike come from different tables or passages of the source.
Experiments:
HTLV-III [1] = test: Anti-AIDS activity, infected cell rate of MT-4 cells infected with HTLV-III at the 6th day (Example 9); type: cell-based; conditions: for Infected cell (%): 6th day, control without test substance 100%
Experimental: (§1) To MT-4 cells (30×10^4 /ml) cultured in RPMI-1640 medium containing 10% bovine serum, was inoculated HTLV-III, and the suspension was incubated at 37° C. for 1 hour to cause the adsorption of the virus. The cell:virus ratio was 500:1. The cells were then washed, and cultured with or without various doses of the test substances (same as those of Example 1) at 37° C. under 5% CO2 for 3 days, after which cell growth, viability, and percentage of infected cells were recorded. The infected cells were distinguished from the uninfected cells by an indirect immuno-fluorescence method. Thus, the cultured cells were fixed with cold methanol on a slide glass, reacted with antibody to the HTLV-III-specific antigens, and further with the secondary antibody (having a fluororescent label). The results are shown in FIGS. 9-29, wherein, .gradient., .increment. and .quadrature. show the controls without virus, and show the infection experiments with HTLV-III. The cell growth is indicated in number of cells, the viability (%) in number of viable cells ×100/number of total cells, and the infected cell rate (%) in number of fluorescent-positive cells x 100/number of total cells.
In order to examine the correlation between the anti-AIDS virus activity and the molecular structure (especially, molecular weight and S-content or number of sulfate group in this case) of various test substances including those used in Examples 1-7, the anti-AIDS activities were evaluated for the various naturally occurring polysaccharides, polysaccharides having a sulfate group, mucopolysaccharides, mucopolysaccharide sulfate, and mucopolysaccharide polysulfate. Further, similar experiments were carried out with various other sulfates which were synthetically obtained. The experimental procedures employed are identical to that in the preceding experiments. The cultured MT-4 cells were infected with HTLV-III and the inhibitory effects of various test substances on the infected cell rate (number of fluorescent cell×100/ total cell, %) were determined at the 6th day.

mice = conditions: cited from earlier work
HTLV-III [2] = test: Anti-AIDS virus activity, MT-4 cells infected with HTLV-III, 3 days (Examples 3, 6, 7); type: cell-based; conditions: increasing dose
Experimental: as §1
Test substances were assayed for the anti-AIDS virus activity in the same manner as in Example 3 using cell culture. […]
The anti-AIDS virus activity of heparin was evaluated in the same manner as in Example 3. […]

MT-4 cells = test: Cytotoxicity, MT-4 cells cultured without virus (Examples 4 and 8); type: cell-based, human
Source text: The cell:virus ratio was 500:1. […] The infected cells were distinguished from the uninfected cells by an indirect immuno-fluorescence method. Thus, the cultured cells were fixed with cold methanol on a slide glass, reacted with antibody to the HTLV-III-specific antigens, and further with the secondary antibody (having a fluororescent label). […] The cell growth is indicated in number of cells, the viability (%) in number of viable cells ×100/number of total cells, and the infected cell rate (%) in number of fluorescent-positive cells x 100/number of total cells.

[3] = system: reverse transciptase of simian sarcoma virus; conditions: Cancer Research, 38, 2401 2407; cited from earlier work
[4] = system: DNA polymerase of phytohemagglutinin stimulated human lymphocytes; conditions: Cancer Research, 38, 2401 2407; cited from earlier work
[5] = system: Friend leukemia virus (F-MuLV); test: Anti-Friend leukemia virus activity, XC-plaque assay, Procedure 1; type: cell-based; conditions: for Number of plaques per dish: control 168
Experimental: (§2) Anti-FMuLV activity of dextran sulfate (molecular weight: 7000-8000, S-content: 17-20%) was determined by a XC-plaque assay method. BALB3T3 cells were cultured in adhesive form in a 35 mm-dish at 5×10^4 cells/dish (2 ml). After removing the culture medium, a fresh medium with or without indicated concentrations of the test substance (1 ml each) and 0.2 ml of the virus preparation were charged, and the cells were cultured overnight. On the following day, the culture media were replaced with those (2 ml) containing or not containing the above substances, the incubation was continued for three additional days to progress the infection and replication of the virus. After the removal of the medium, the further progression of viral replication was stopped by UV irradiation. To this dish, the suspension of XC-cells (2 ml) was added and cultured for three days and the plaque formation produced by the virus particle induced cell-fusion, was observed.

[6] = system: disrupted HTLV-III virions as a crude reverse transcriptase; test: Inhibition of reverse transcriptase activity (HTLV-III), Example 2; type: biochemical; conditions: FIG. 8
[7] = system: Friend leukemia virus (F-MuLV); test: Anti-Friend leukemia virus activity, XC-plaque assay, Procedure 2; type: cell-based; conditions: for Number of plaques per dish: control 35
Experimental: as §2
Procedure 1 was repeated except that after adsorption of the virus in the medium without DS, the non-adsorbed viruses were removed and the culture was carried out in the medium (2 ml) containing or not containing DS.

**Q.** Which results are given for Heparin?
**A.** Infected cell (%) (HTLV-III [1]; 10 μg/ml): 41%; Infected cell (%) (HTLV-III [1]; 100 μg/ml): 1%; anti-AIDS virus activity, in words (HTLV-III [1]; Example 9): particularly strong; acute toxicity (LD50) (mice; intravenously): 1,500-2,000 mg/kg; cell growth (number of cells) and viability of MT-4 cells infected with HTLV-III (HTLV-III [2]): the number of cells and viability were maintained to that of control; infected cell rate (%) of MT-4 cells infected with HTLV-III, in words (HTLV-III [2]): less susceptible to the viral infection; cytotoxicity to MT-4 cells, in words (MT-4 cells): little cytotoxicity; inhibition of reverse transciptase of simian sarcoma virus in vitro [3]: inhibit; inhibition of DNA polymerase of phytohemagglutinin stimulated human lymphocytes in vitro [4]: inhibit

**Q.** Which results are given for “dextran sulfate [Dextran sulfate 7,000-8,000]”?
**A.** Infected cell (%) (HTLV-III [1]; 10 μg/ml): 1%; Infected cell (%) (HTLV-III [1]; 100 μg/ml): 0%; acute toxicity (LD50) (mice; intravenously): 4,500 mg/kg; acute toxicity (LD50) (mice; orally): 21,000 mg/kg; Inhibition (%) ([5]; Procedure 1, 1 μg/ml): 92%; Number of plaques per dish ([5]; Procedure 1, 1 μg/ml): 14 per dish; Inhibition (%) ([5]; Procedure 1, 5 μg/ml): 93%; Number of plaques per dish ([5]; Procedure 1, 5 μg/ml): 12 per dish; Inhibition (%) ([5]; Procedure 1, 10 μg/ml): 93%; Number of plaques per dish ([5]; Procedure 1, 10 μg/ml): 11 per dish; Inhibition (%) ([5]; Procedure 1, 50 μg/ml): 92%; Number of plaques per dish ([5]; Procedure 1, 50 μg/ml): 13 per dish; Inhibition (%) ([5]; Procedure 1, 100 μg/ml): 96%; Number of plaques per dish ([5]; Procedure 1, 100 μg/ml): 6 per dish; Inhibition (%) ([5]; Procedure 1, 1000 μg/ml): 100%; inhibition of the formation of plaque ([5]; Procedure 1, concentrations of 1-100 μg/ml): ≥ 90%; Viability (MT-4 cells; 1 μg/ml, without virus, 0 μg/ml gives 87): 90%; inhibitory effect against the reverse transcriptase derived from HTLV-III [6]: has an inhibitory effect; Inhibition (%) ([7]; Procedure 2, 0.01 μg/ml): 6%; Number of plaques per dish ([7]; Procedure 2, 0.01 μg/ml): 33 per dish; Inhibition (%) ([7]; Procedure 2, 0.1 μg/ml): 45%; Number of plaques per dish ([7]; Procedure 2, 0.1 μg/ml): 19 per dish; Number of plaques per dish ([7]; Procedure 2, 1 μg/ml): 14 per dish; Inhibition (%) ([7]; Procedure 2, 10 μg/ml): 52%; Number of plaques per dish ([7]; Procedure 2, 10 μg/ml): 17 per dish; Inhibition (%) ([7]; Procedure 2, 100 μg/ml): 54%; Number of plaques per dish ([7]; Procedure 2, 100 μg/ml): 16 per dish; Number of plaques per dish ([7]; Procedure 2, 500 μg/ml): 0 per dish

From patent US5100879A, “Method of topically cleansing the human body” (K.K. Ueno Seiyaku Oyo Kenkyujo, priority 1987, dated 1992)
